Experimental data reported in US20250171438A1 (Agios Pharmaceuticals, Inc., priority 2022, published 2025).

Biological target: T1, human PAH with the R408W mutation (Homo sapiens, UniProt P00439, R408W)
T1 construct: expressed in transfected cells
T1 sequence (P00439 1-452 R408W): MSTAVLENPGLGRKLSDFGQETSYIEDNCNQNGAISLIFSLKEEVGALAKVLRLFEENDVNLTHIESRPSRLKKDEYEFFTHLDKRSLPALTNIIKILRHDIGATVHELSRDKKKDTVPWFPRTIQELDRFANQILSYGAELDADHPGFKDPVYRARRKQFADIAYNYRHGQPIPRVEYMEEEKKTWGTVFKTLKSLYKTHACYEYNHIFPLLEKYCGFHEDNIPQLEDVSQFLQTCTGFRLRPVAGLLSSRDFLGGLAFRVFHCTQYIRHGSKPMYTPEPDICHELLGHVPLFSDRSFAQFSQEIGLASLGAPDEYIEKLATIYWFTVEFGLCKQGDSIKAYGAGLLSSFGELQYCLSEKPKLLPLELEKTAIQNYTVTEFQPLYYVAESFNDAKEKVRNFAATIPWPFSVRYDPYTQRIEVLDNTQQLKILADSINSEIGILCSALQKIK
Assay: Cell Based Phenylalanine Flux Assay
Design: scale not given here
Details: A375 cells expressing human R408W PAH; 24 hrs compound incubation; 13C-Tyrosine by LC-MS; average where tested multiple times; read-out: AC50

How did the AC50 turn out when N#Cc1ncoc1C(=O)N1CCc2[nH]cnc2[C@H]1c1nc2c(F)cccc2s1 [Example 1661, (S)-5-(4-(4-fluorobenzo[d]thiazol-2-yl)-4,5,6,7-tetrahydro-1H-imidazo[4,5-c]pyridine-5-carbonyl)oxazole-4-carbonitrile] was run?
Its AC50 is 500 to 1000 nM.

How did the AC50 turn out when C[C@H]1CN(C(=O)c2ocnc2C2CC2)[C@H](c2nc3c(F)cccc3s2)c2nc[nH]c21 [Example 1608, (4-cyclopropyloxazol-5-yl)((4S,7S)-4-(4-fluorobenzo[d]thiazol-2-yl)-7-methyl-6,7-dihydro-1H-imidazo[4,5-c]pyridin-5(4H)-yl)methanone] was run?
Its AC50 is 500 to 1000 nM.

With “(S)-(4-bromothiazol-5-yl)(4-(4- fluorobenzo[d]thiazol-2-yl)-6,7-dihydro-1H)- imidazo[4,5-c]pyridin-5(4H)-yl)methanone [Example 1617]” as the compound, how does the AC50 read?
Its AC50 is under 500 nM.

With CC(C)n1ncc(C(=O)N2CCc3[nH]cnc3[C@H]2c2nc3c(F)cccc3s2)c1C(F)F [Example 2001, (S)-(5-(difluoromethyl)-1-isopropyl-1H-pyrazol-4-yl)(4-(4-fluorobenzo[d]thiazol-2-yl)-6,7-dihydro-1H-imidazo[4,5-c]pyridin-5(4H)-yl)methanone] as the compound, how does the AC50 read?
The AC50 was under 500 nM.

How did the AC50 turn out when O=C(C1CC1(F)F)N1CCc2[nH]cnc2[C@@H]1c1nc2ccccc2s1 (single isomer, unassigned) [Example 1286] was run?
Its AC50 is 1000 to 5000 nM.

How did the AC50 turn out when COC(C)(C)c1nc(C)c(C(=O)N2CCc3[nH]cnc3[C@@H]2c2nc3c(F)cccc3s2)o1 [Example 1915, (R)-(4-(4-fluorobenzo[d]thiazol-2-yl)-6,7-dihydro-1H-imidazo[4,5-c]pyridin-5(4H)-yl)(2-(2-methoxypropan-2-yl)-4-methyloxazol-5-yl)methanone] was run?
The AC50 was over 5000 nM.

C[C@@H]1CN(C(=O)c2nnc(-c3ccccn3)o2)[C@H](c2nc3ccccc3s2)c2nc[nH]c21 [Example 1588, ((4S,7R)-4-(benzo[d]thiazol-2-yl)-7-methyl-6,7-dihydro-1H-imidazo[4,5-c]pyridin-5(4H)-yl)(5-(pyridin-2-yl)-1,3,4-oxadiazol-2-yl)methanone] was tested. Which AC50 did it give?
Its AC50 is 500 to 1000 nM.

For O=C(c1cnn2cc(-c3ccccn3)ccc12)N1CCc2[nH]cnc2[C@H]1c1nc2ccccc2s1 [Example 1211], which AC50 is on record?
The AC50 was 500 to 1000 nM.

How did the AC50 turn out when Cn1ncc(-c2ncc(C(=O)N3CCc4[nH]cnc4[C@@H]3c3nc4ccccc4s3)s2)c1C(F)(F)F [Example 1408, (R)-(4-(benzo[d]thiazol-2-yl)-6,7-dihydro-1H-imidazo[4,5-c]pyridin-5(4H)-yl)(2-(1-methyl-5-(trifluoromethyl)-1H-pyrazol-4-yl)thiazol-5-yl)methanone] was run?
The AC50 was 1000 to 5000 nM.

With O=C(CCc1nccs1)N1CCc2[nH]cnc2[C@H]1c1nc2ccc(Br)cc2s1 [Example 1081, (S)-1-(4-(6-bromobenzo[d]thiazol-2-yl)-6,7-dihydro-1H-imidazo[4,5-c]pyridin-5(4H)-yl)-3-(thiazol-2-yl)propan-1-one] as the compound, how does the AC50 read?
Its AC50 is 500 to 1000 nM.

O=C(c1nncs1)N1CCc2[nH]cnc2[C@H]1c1nc2ccccc2s1 [Example 1068] was tested. Which AC50 did it give?
The AC50 was 500 to 1000 nM.

For O=C(C1CC1)N1CCc2[nH]cnc2[C@@H]1c1nc2ccc(Cl)cc2[nH]1 [Example 959, (R)-(4-(6-chloro-1H-benzo[d]imidazol-2-yl)-6,7-dihydro-1H-imidazo[4,5-c]pyridin-5(4H)-yl)(cyclopropyl)methanone], which AC50 is on record?
Its AC50 is over 5000 nM.

For CC(C)(F)c1ncc(C(=O)N2CCc3[nH]cnc3[C@H]2c2nc3c(F)cccc3s2)s1 [Example 1486, (S)-(4-(4-fluorobenzo[d]thiazol-2-yl)-6,7-dihydro-1H-imidazo[4,5-c]pyridin-5(4H)-yl)(2-(2-fluoropropan-2-yl)thiazol-5-yl)methanone], which AC50 is on record?
Its AC50 is under 500 nM.

O=C(c1ccno1)N1CCc2[nH]cnc2[C@H]1c1nc2ccccc2s1 [Example 1123] was tested. Which AC50 did it give?
Its AC50 is 500 to 1000 nM.

How did the AC50 turn out when Cc1nnc(C(=O)N2CC3(CC3)c3[nH]cnc3[C@@H]2c2nc3ccccc3s2)o1 [Example 1685, (R)-(4′-(benzo[d]thiazol-2-yl)spiro[cyclopropane-1,7′-imidazo[4,5-c]pyridin]-5′(1′H,4′H,6′H)-yl)(5-methyl-1,3,4-oxadiazol-2-yl)methanone] was run?
The AC50 was 1000 to 5000 nM.

How did the AC50 turn out when O=C(c1cnsc1)N1CCc2[nH]cnc2[C@@H]1c1nc2ccccc2s1 [Example 1062, (R)-(4-(benzo[d]thiazol-2-yl)-6,7-dihydro-1H-imidazo[4,5-c]pyridin-5(4H)-yl)(isothiazol-4-yl)methanone] was run?
The AC50 was over 5000 nM.

For Cn1cc(C(=O)N2CCc3[nH]cnc3[C@@H]2c2nc3c(F)cccc3s2)c(C(F)(F)F)n1 [Example 1614, (R)-(4-(4-fluorobenzo[d]thiazol-2-yl)-6,7-dihydro-1H-imidazo[4,5-c]pyridin-5(4H)-yl)(1-methyl-3-(trifluoromethyl)-1H-pyrazol-4-yl)methanone], which AC50 is on record?
Its AC50 is under 500 nM.

How did the AC50 turn out when CC(O)c1nc(Br)c(C(=O)N2CCc3[nH]cnc3[C@@H]2c2nc3c(F)cccc3s2)o1 (single isomer, unassigned) [Example 2060] was run?
Its AC50 is 500 to 1000 nM.

Cc1nc(CN(C)C)oc1C(=O)N1CCc2[nH]cnc2[C@H]1c1nc2ccccc2s1 [Example 1693] was tested. Which AC50 did it give?
The AC50 was 500 to 1000 nM.

O=C(CCc1nc(Cl)cs1)N1CCc2[nH]cnc2[C@@H]1c1nc2ccccc2s1 [Example 1024, (R)-1-(4-(benzo[d]thiazol-2-yl)-6,7-dihydro-1H-imidazo[4,5-c]pyridin-5(4H)-yl)-3-(4-chlorothiazol-2-yl)propan-1-one] was tested. Which AC50 did it give?
The AC50 was over 5000 nM.

Which AC50 does the source give for Cn1ncnc1C(=O)N1CCc2[nH]cnc2[C@H]1c1nc2c(C(F)(F)F)cccc2s1 [Example 2101, (S)-(1-methyl-1H-1,2,4-triazol-5-yl)(4-(4-(trifluoromethyl)benzo[d]thiazol-2-yl)-6,7-dihydro-1H-imidazo[4,5-c]pyridin-5(4H)-yl)methanone] here?
Its AC50 is 500 to 1000 nM.

For O=C(c1cnc(-c2cnn(CC(F)(F)F)c2)o1)N1CCc2[nH]cnc2[C@@H]1c1nc2ccccc2s1 [Example 1392, (R)-(4-(benzo[d]thiazol-2-yl)-6,7-dihydro-1H-imidazo[4,5-c]pyridin-5(4H)-yl)(2-(1-(2,2,2-trifluoroethyl)-1H-pyrazol-4-yl)oxazol-5-yl)methanone], which AC50 is on record?
The AC50 was 1000 to 5000 nM.

Cc1cc(F)ccc1-c1nnc(C(=O)N2CCc3[nH]cnc3[C@H]2c2nc3ccccc3s2)o1 [Example 1783] was tested. Which AC50 did it give?
The AC50 was under 500 nM.

For CC(C)(O)c1nc(CF)c(C(=O)N2CCc3[nH]cnc3[C@@H]2c2nc3c(F)cccc3s2)o1 [Example 2066, (R)-(4-(4-fluorobenzo[d]thiazol-2-yl)-6,7-dihydro-1H-imidazo[4,5-c]pyridin-5(4H)-yl)(4-(fluoromethyl)-2-(2-hydroxypropan-2-yl)oxazol-5-yl)methanone], which AC50 is on record?
Its AC50 is 1000 to 5000 nM.

With Cn1cc(C(=O)N2CCc3[nH]cnc3[C@@H]2c2nc3ccccc3s2)c(Cl)n1 [Example 1869, (R)-(4-(benzo[d]thiazol-2-yl)-6,7-dihydro-1H-imidazo[4,5-c]pyridin-5(4H)-yl)(3-chloro-1-methyl-1H-pyrazol-4-yl)methanone] as the compound, how does the AC50 read?
The AC50 was over 5000 nM.

Same assay, conditions: A375 cells expressing human R408W PAH; 24 hrs with compound; 13C-Tyrosine by LC-MS; average where tested multiple times

For CC(C)(O)CCc1nc(C(F)(F)F)c(C(=O)N2CCc3[nH]cnc3C2c2nc3ccccc3s2)o1 (centres unmarked), which AC50 is on record?
Its AC50 is “E, E”.

Same assay, conditions: A375 cells expressing human R408W PAH; 24 hrs with compound; 13C-Tyrosine by LC-MS; average where tested multiple times; read-out: AC50

With Cn1nc(CC#N)nc1C(=O)N1CCc2[nH]cnc2C1c1nc2c(F)cccc2s1 (centres unmarked) as the compound, how does the AC50 read?
Its AC50 is over 5000 nM.

How did the AC50 turn out when O=C(c1cnn2cc(Br)ccc12)N1CCc2[nH]cnc2[C@H]1c1nc2ccccc2[nH]1 [(S)-(4-(1H-benzo[d]imidazol-2-yl)-1,4,6,7-tetrahydro-5H-imidazo[4,5-c]pyridin-5-yl)(6-bromopyrazolo[1,5-a]pyridin-3-yl)methanone] was run?
Its AC50 is 1000 to 5000 nM.

CC(C)(O)c1nnc(C(=O)N2CCc3[nH]cnc3C2c2nc3c(F)cccc3s2)o1 (centres unmarked) was tested. Which AC50 did it give?
Its AC50 is 1000 to 5000 nM.

With O=C(Cc1cnn2ccccc12)N1CCc2[nH]cnc2C1c1nc2ccccc2s1 (centres unmarked) as the compound, how does the AC50 read?
The AC50 was 1000 to 5000 nM.

For Cn1nc(COC(F)(F)F)cc1C(=O)N1CCc2[nH]cnc2C1c1nc2c(F)cccc2s1 (centres unmarked), which AC50 is on record?
Its AC50 is over 5000 nM.

Which AC50 does the source give for O=C(c1cnco1)N1CCCc2[nH]cnc2C1c1nc2ccccc2s1 (centres unmarked) here?
Its AC50 is over 5000 nM.

For CC(C)(O)c1noc(C(=O)N2CCc3[nH]cnc3C2c2nc3c(F)cccc3s2)n1 (centres unmarked), which AC50 is on record?
Its AC50 is over 5000 nM.

Which AC50 does the source give for c1ccc2sc(C3c4nc[nH]c4CCN3c3nnc(C4CC4)o3)nc2c1 (centres unmarked) here?
The AC50 was 1000 to 5000 nM.

For O=C(CCc1cscn1)N1CCc2[nH]cnc2[C@H]1c1nc2ccccc2[nH]1 [(S)-1-(4-(1H-benzo[d]imidazol-2-yl)-1,4,6,7-tetrahydro-5H-imidazo[4,5-c]pyridin-5-yl)-3-(thiazol-4-yl)propan-1-one], which AC50 is on record?
Its AC50 is 1000 to 5000 nM.

For CC1CN(C(=O)c2nnc(C(C)(C)O)o2)C(c2nc3ccccc3s2)c2nc[nH]c21 (centres unmarked), which AC50 is on record?
The AC50 was over 5000 nM.

Which AC50 does the source give for Cn1nc(C2CC2)cc1C(=O)N1CCc2[nH]cnc2C1c1nc2c(F)cccc2s1 (centres unmarked) here?
The AC50 was 1000 to 5000 nM.

How did the AC50 turn out when O=C(c1nnc(CCN2CCOCC2)o1)N1CCc2[nH]cnc2C1c1nc2ccccc2s1 (centres unmarked) was run?
The AC50 was over 5000 nM.

With CC(C)(O)c1cc(C(=O)N2CCc3[nH]cnc3C2c2nc3ccccc3s2)on1 (centres unmarked) as the compound, how does the AC50 read?
Its AC50 is 1000 to 5000 nM.

For CN(C)CCCc1nnc(C(=O)N2CCc3[nH]cnc3[C@@H]2c2nc3ccccc3s2)o1 (single isomer, unassigned), which AC50 is on record?
The AC50 was over 5000 nM.

Which AC50 does the source give for Cc1cccc2sc(C3c4nc[nH]c4CCN3C(=O)c3cnn(C)c3Cl)nc12 (centres unmarked) here?
The AC50 was over 5000 nM.

O=C(c1cnn2cccc(F)c12)N1CCc2[nH]cnc2C1c1nc2c(F)cccc2s1 (centres unmarked) was tested. Which AC50 did it give?
The AC50 was 1000 to 5000 nM.

How did the AC50 turn out when CC(C)(O)c1cc(C(=O)N2CCc3[nH]cnc3C2c2nc3ccccc3s2)sn1 (centres unmarked) was run?
The AC50 was over 5000 nM.

Which AC50 does the source give for Cc1nnc(C(=O)N2CCc3[nH]cnc3C2c2nc3cc(F)ccc3s2)s1 (centres unmarked) here?
Its AC50 is over 5000 nM.
